Measurements taken from ChEMBL document CHEMBL5120826, “Effects of β-lapachone and β-nor-lapachone on multidrug efflux transporters and biofilms of Candida glabrata” (Bioorg Med Chem, 2022).
Active and inactive are the calls of the source. No cut-off for these calls is given here.

Experiments:
[1] = test system: Saccharomyces cerevisiae; assay: Synergistic antifungal activity against fluconazole resistant Saccharomyces cerevisiae overexpressing CgCdr2p transporter assessed as reduction in fungal growth incubated for 48 hrs in presence of fluconazole by checkboard assay based microplate reader analysis; format: functional
[2] = test system: Saccharomyces cerevisiae; assay: Synergistic antifungal activity against fluconazole resistant Saccharomyces cerevisiae overexpressing CgCdr1p transporter assessed as reduction in fungal growth incubated for 48 hrs in presence of lapachone by checkboard assay based microplate reader analysis; format: functional
[3] = test system: Saccharomyces cerevisiae; assay: Effect on efflux pump function in fluconazole resistant Saccharomyces cerevisiae overexpressing CgCdr2p transporter assessed as accumulation of Nile red fluorescence incubated for 1 hr by fluorescence based assay; format: functional
[4] = test system: Nakaseomyces glabratus; assay: Antibiofilm activity against fluconazole resistant Candida glabrata 109 overexpressing CgCdr1p transporter assessed as inhibition of biofilm formation at 200 ug/ml incubated for 48 hrs; format: functional
[5] = test system: Erythrocyte; assay: Hemolytic activity in human erythrocytes assessed as haemoglobin release at 12.5 ug/ml incubated for 1 hr in presence of fluconazole by absorbance based method; format: toxicity, cell-based; conditions: dose 12.5 µg/ml
[6] = test system: Saccharomyces cerevisiae; assay: Synergistic antifungal activity against fluconazole resistant Saccharomyces cerevisiae overexpressing CgCdr1p transporter assessed as fractional inhibitory concentration incubated for 48 hrs in presence of lapachone by checkboard assay based microplate reader analysis; format: functional
[7] = test system: Nakaseomyces glabratus; assay: Disruption of plasma membrane integrity in fluconazole resistant Candida glabrata 109 overexpressing CgCdr1p transporter assessed as fold increase in sytox green fluorescence intensity at 50 ug/ml incubated for 48 hrs by fluorescence based assay; format: functional; conditions: dose 50 µg/ml
[8] = test system: Nakaseomyces glabratus; assay: Indifferent antifungal activity against fluconazole resistant Candida glabrata 109 overexpressing CgCdr1p transporter assessed as reduction in fungal growth incubated for 48 hrs in presence of fluconazole by checkboard assay based microplate reader analysis; format: functional
[9] = test system: Nakaseomyces glabratus; assay: Induction of morphological changes in fluconazole resistant Candida glabrata 109 overexpressing CgCdr1p transporter assessed as decrease in cellular density at 200 ug/ml by calcofluor white dye based confocal laser scanning microscopy; format: functional, organism-based; conditions: dose 200.0 µg/ml
[10] = test system: Saccharomyces cerevisiae; assay: Synergistic antifungal activity against fluconazole resistant Saccharomyces cerevisiae overexpressing CgCdr1p transporter assessed as reduction in fungal growth incubated for 48 hrs in presence of fluconazole by checkboard assay based microplate reader analysis; format: functional
[11] = test system: Erythrocyte; assay: Hemolytic activity in human erythrocytes assessed as haemoglobin release at 12.5 ug/ml incubated for 1 hr by absorbance based method; format: toxicity, cell-based; conditions: dose 12.5 µg/ml
[12] = test system: Saccharomyces cerevisiae; assay: Inhibition of fluconazole resistant Saccharomyces cerevisiae overexpressing CgCdr2p transporter ATPase activity assessed as reduction in inorganic phosphate release in presence of ATP incubated for 1 hr by Fiske and Sub barrow method; conditions: concentration not given here
[13] = test system: Saccharomyces cerevisiae; assay: Synergistic antifungal activity against fluconazole resistant Saccharomyces cerevisiae overexpressing CgCdr1p transporter assessed as fractional inhibitory concentration in presence of fluconazole incubated for 48 hrs by checkboard assay based microplate reader analysis; format: functional
[14] = test system: Nakaseomyces glabratus; assay: Inhibition of fluconazole resistant Candida glabrata 109 overexpressing CgCdr1p transporter ATPase activity assessed as reduction in inorganic phosphate release in presence of ATP incubated for 1 hr by Fiske and Sub barrow method; conditions: concentration not given here
[15] = Inhibition of fluconazole resistant Candida glabrata 109 overexpressing CgCdr1p transporter […] cell adhesion to polystyrene at 200 ug/ml incubated for 90 mins by MTT assay; format: functional; conditions: Nakaseomyces glabratus, 109, 1.5 h
[16] = test system: Nakaseomyces glabratus; assay: Disruption of plasma membrane integrity in fluconazole resistant Candida glabrata 109 overexpressing CgCdr1p transporter assessed as fold increase in sytox green fluorescence intensity at 200 ug/ml incubated for 48 hrs by fluorescence based assay; format: functional; conditions: dose 200 µg/ml
[17] = test system: Saccharomyces cerevisiae; assay: Synergistic antifungal activity against fluconazole resistant Saccharomyces cerevisiae overexpressing CgCdr2p transporter assessed as reduction in fungal growth incubated for 48 hrs in presence of lapachone by checkboard assay based microplate reader analysis; format: functional
[18] = test system: Saccharomyces cerevisiae; assay: Synergistic antifungal activity against fluconazole resistant Saccharomyces cerevisiae overexpressing CgCdr2p transporter assessed as fractional inhibitory concentration incubated for 48 hrs in presence of lapachone by checkboard assay based microplate reader analysis; format: functional
[19] = test system: Saccharomyces cerevisiae; assay: Synergistic antifungal activity against fluconazole resistant Saccharomyces cerevisiae overexpressing CgCdr2p transporter assessed as fractional inhibitory concentration in presence of fluconazole incubated for 48 hrs by checkboard assay based microplate reader analysis; format: functional
[20] = test system: Nakaseomyces glabratus; assay: Induction of morphological changes in fluconazole resistant Candida glabrata 109 overexpressing CgCdr1p transporter assessed as decrease in number of cells within biofilm at 200 ug/ml incubated for 48 hrs by SEM analysis; format: functional, organism-based; conditions: dose 200.0 µg/ml
[21] = test system: Nakaseomyces glabratus; assay: Antifungal activity against fluconazole resistant Candida glabrata 109 overexpressing CgCdr1p transporter assessed as reduction in fungal growth incubated for 48 hrs in presence of fluconazole by serial dilution method; format: functional, organism-based
[22] = test system: Saccharomyces cerevisiae; assay: Synergistic antifungal activity against fluconazole resistant Saccharomyces cerevisiae overexpressing CgCdr1p transporter assessed as fractional inhibitory concentration index incubated for 48 hrs by checkboard assay based microplate reader analysis; format: functional
[23] = test system: Saccharomyces cerevisiae; assay: Additive antifungal activity against fluconazole resistant Saccharomyces cerevisiae overexpressing CgCdr1p transporter assessed as reduction in fungal growth incubated for 48 hrs in presence of fluconazole by checkboard assay based microplate reader analysis; format: functional
[24] = test system: Saccharomyces cerevisiae; assay: Additive antifungal activity against fluconazole resistant Saccharomyces cerevisiae overexpressing CgCdr1p transporter assessed as fractional inhibitory concentration in presence of fluconazole incubated for 48 hrs by checkboard assay based microplate reader analysis; format: functional
[25] = test system: Saccharomyces cerevisiae; assay: Additive antifungal activity against fluconazole resistant Saccharomyces cerevisiae overexpressing CgCdr1p transporter assessed as fractional inhibitory concentration incubated for 48 hrs in presence of lapachone by checkboard assay based microplate reader analysis; format: functional
[26] = test system: Saccharomyces cerevisiae; assay: Additive antifungal activity against fluconazole resistant Saccharomyces cerevisiae overexpressing CgCdr1p transporter assessed as reduction in fungal growth incubated for 48 hrs in presence of lapachone by checkboard assay based microplate reader analysis; format: functional
[27] = test system: Erythrocyte; assay: Hemolytic activity in human erythrocytes assessed as haemoglobin release at 50 ug/ml incubated for 1 hr by absorbance based method; format: toxicity, cell-based; conditions: dose 50 µg/ml
[28] = test system: Erythrocyte; assay: Hemolytic activity in human erythrocytes assessed as haemoglobin release at 50 ug/ml incubated for 1 hr in presence of fluconazole by absorbance based method; format: toxicity, cell-based; conditions: dose 50 µg/ml
[29] = test system: Saccharomyces cerevisiae; assay: Additive antifungal activity against fluconazole resistant Saccharomyces cerevisiae overexpressing CgCdr1p transporter assessed as fractional inhibitory concentration index incubated for 48 hrs by checkboard assay based microplate reader analysis; format: functional

SMILES: CC1(C)CCC2=C(O1)c1ccccc1C(=O)C2=O [LAPACHONE]
- MIC [1]: 3.9 µg/mL
- MIC [2]: 25 µg/mL
- Activity [3]: 50%
- inhibition at 200 µg/mL [4]: 72%
- Activity [5]: Non-Toxic
- FIC [6]: 0.25 µg/mL
- fold change (FC) [7]: 1.6
- MIC [8]: > 1000 µg/mL
- Activity [9]: Active
- MIC [10]: 125 µg/mL
- Activity [11]: Non-Toxic
- inhibition [12]: 46%
- FIC [13]: 0.25 µg/mL
- inhibition [14]: 49%
- inhibition at 200 µg/mL [15]: 44%
- fold change (FC) [16]: 3
- MIC [17]: 6.25 µg/mL
- FIC [18]: 0.25 µg/mL
- FIC [19]: 0.06 µg/mL
- Activity [20]: Active
- Activity [21]: Active
- fractional inhibitory concentration index (FICI) [22]: 0.5

SMILES: CC1(C)CC2=C(O1)c1ccccc1C(=O)C2=O [NOR-BETA-LAPACHONE]
- MIC [23]: 62.5 µg/mL
- Activity [3]: 50%
- FIC [24]: 0.125 µg/mL
- inhibition at 200 µg/mL [4]: 48%
- MIC [8]: > 1000 µg/mL
- Activity [9]: Active
- FIC [25]: 0.5 µg/mL
- MIC [26]: 25 µg/mL
- Activity [27]: Non-Toxic
- Activity [28]: Non-Toxic
- Activity [20]: Active
- Activity [21]: Active
- fractional inhibitory concentration index (FICI) [29]: 0.625
